Legend:
[1] = system: 129S6/SvEv mice; experiment: Marble burying (MB); assay type: in vivo
Protocol: The MB assay was conducted in a clean cage (10.5 in×5.5 in) containing soft pliable Beta Chip bedding (Northeastern Products Corp, Warrensburg, N.Y.). The cage contained 16 marbles set up in 4 rows of 4 across. Mice were given 30 minutes to explore and bury. At the end of the assay, the percentage of marbles buried was calculated.

[2] = system: 129S6/SvEv mice; experiment: Forced swim test (FST); immobility time; assay type: in vivo; settings: for p, Fisher's PLSD Saline vs. drug, FST Day 2 Immobility Time (sec): drug 1 week before stress; for p, Fisher's PLSD Saline vs. drug, FST Day 2 Immobility Time Min 1 (s) / p, Fisher's PLSD Saline vs. drug, FST Day 2 Immobility Time Min 2 (s) / p, Fisher's PLSD Saline vs. drug, FST Day 2 Immobility Time Min 3 (s) / p, Fisher's PLSD Saline vs. drug, FST Day 2 Immobility Time Min 4 (s) / p, Fisher's PLSD Saline vs. drug, FST Day 2 Immobility Time Min 5 (s) / p, Fisher's PLSD Saline vs. drug, FST Day 2 Immobility Time Min 6 (s) / p, Fisher's PLSD Saline vs. drug, FST Day 2 Immobility Time (s) / p, Immobility Time (s), FST Day 2, (R,S)-ketamine vs. FENM / p, Immobility Time (s), FST Day 2, Saline vs. drug: drug 5 minutes after stress; for p, Fisher's PLSD Saline vs. drug, FST Day 2 Immobility Time Min 1 (s) / p, Fisher's PLSD Saline vs. drug, FST Day 2 Immobility Time Min 2 (s) / p, Fisher's PLSD Saline vs. drug, FST Day 2 Immobility Time Min 3 (s) / p, Fisher's PLSD Saline vs. drug, FST Day 2 Immobility Time Min 4 (s) / p, Fisher's PLSD Saline vs. drug, FST Day 2 Immobility Time Min 5 (s) / p, Fisher's PLSD Saline vs. drug, FST Day 2 Immobility Time Min 6 (s): FIG. 2F; for p, Fisher's PLSD Saline vs. drug, FST Day 2 Immobility Time (s): FIG. 2G; for Forced Swim Test Day 1, Immobility Time Min 1 (sec), p (Fisher's LSD) / Forced Swim Test Day 1, Immobility Time Min 2 (sec), p (Fisher's LSD) / Forced Swim Test Day 1, Immobility Time Min 3 (sec), p (Fisher's LSD) / Forced Swim Test Day 1, Immobility Time Min 4 (sec), p (Fisher's LSD) / Forced Swim Test Day 1, Immobility Time Min 5 (sec), p (Fisher's LSD) / Forced Swim Test Day 1, Immobility Time Min 6 (sec), p (Fisher's LSD): FIG. 8H; for p, Immobility Time (s), FST Day 2, (R,S)-ketamine vs. FENM: (R,S)-ketamine 30 mg/kg vs. FENM 20 mg/kg
Protocol: The FST was administered as previously described (47). Briefly, mice were placed into clear plastic buckets 20 cm in diameter and 23 cm deep filled ⅔ of the way with 22° C. water. Mice were videotaped from the side for 6 min and were exposed to the swim test on 2 consecutive days Immobility time was scored by an experimenter blind to the experimental groups.

[3] = (R,S)-ketamine (30 mg/kg) vs. FENM (20 mg/kg)
[4] = Fisher's LSD, Baseline cohort, FENM 20 mg/kg, FIG. 6D
[5] = non-stressed mice, FENM 20 mg/kg 1 hour before the start of the FST, vs saline

NC12CC3CC(C1)CC(CCF)(C3)C2 [FENM, 1-amino-3-fluoroethyl-adamantane]
number of marbles buried ([1]; non-stressed mice, FENM 20 mg/kg 1 hour before the start of the OF, vs saline): did not affect | p, Marbles Buried (no.), MB, Saline vs. FENM ([1]; t-test, Baseline, anxiety cohort, FENM 20 mg/kg, FIG. 7F): 0.4657 | p, Fisher's PLSD Saline vs. drug, FST Day 2 Immobility Time (sec) ([2]; 10 mg/kg, after ANOVA, FIG. 1G): 0.0307 | p, Fisher's PLSD Saline vs. drug, FST Day 2 Immobility Time (sec) ([2]; 10 mg/kg, after RMANOVA, FIG. 1F): 0.0085 | p, Fisher's PLSD Saline vs. drug, FST Day 2 Immobility Time Min 1 (s) ([2]; 10 mg/kg): 0.3105 | p, Fisher's PLSD Saline vs. drug, FST Day 2 Immobility Time Min 2 (s) ([2]; 10 mg/kg): 0.2275 | p, Fisher's PLSD Saline vs. drug, FST Day 2 Immobility Time Min 3 (s) ([2]; 10 mg/kg): 0.0949 | p, Fisher's PLSD Saline vs. drug, FST Day 2 Immobility Time Min 4 (s) ([2]; 10 mg/kg): 0.1329 | p, Fisher's PLSD Saline vs. drug, FST Day 2 Immobility Time Min 5 (s) ([2]; 10 mg/kg): 0.4763 | p, Fisher's PLSD Saline vs. drug, FST Day 2 Immobility Time Min 6 (s) ([2]; 10 mg/kg): 0.4453 | p, Fisher's PLSD Saline vs. drug, FST Day 2 Immobility Time (s) ([2]; 10 mg/kg, after ANOVA): 0.0204 | p, Fisher's PLSD Saline vs. drug, FST Day 2 Immobility Time (sec) ([2]; 20 mg/kg, after ANOVA, FIG. 1G): <0.0001 | p, Fisher's PLSD Saline vs. drug, FST Day 2 Immobility Time (sec) ([2]; 20 mg/kg, after RMANOVA, FIG. 1F): <0.0001 | p, Fisher's PLSD Saline vs. drug, FST Day 2 Immobility Time (sec) ([2]; 30 mg/kg, after ANOVA, FIG. 1G): 0.0005 | p, Fisher's PLSD Saline vs. drug, FST Day 2 Immobility Time (sec) ([2]; 30 mg/kg, after RMANOVA, FIG. 1F): 0.0003 | p, Fisher's PLSD Saline vs. drug, FST Day 2 Immobility Time Min 1 (s) ([2]; 30 mg/kg): 0.9988 | p, Fisher's PLSD Saline vs. drug, FST Day 2 Immobility Time Min 2 (s) ([2]; 30 mg/kg): <0.0001 | p, Fisher's PLSD Saline vs. drug, FST Day 2 Immobility Time Min 3 (s) ([2]; 30 mg/kg): 0.2804 | p, Fisher's PLSD Saline vs. drug, FST Day 2 Immobility Time Min 4 (s) ([2]; 30 mg/kg): 0.4890 | p, Fisher's PLSD Saline vs. drug, FST Day 2 Immobility Time Min 5 (s) ([2]; 30 mg/kg): 0.8673 | p, Fisher's PLSD Saline vs. drug, FST Day 2 Immobility Time Min 6 (s) ([2]; 30 mg/kg): 0.6591 | p, Fisher's PLSD Saline vs. drug, FST Day 2 Immobility Time (s) ([2]; 30 mg/kg, after ANOVA): 0.0210 | immobility time, day 2 of the FST ([2]; 5 minutes after CFC, re-exposure 1 day after training, (R,S)-ketamine 30 mg/kg, FENM 20 mg/kg, vs saline): significantly reduced immobility time | Forced Swim Test Day 1, Immobility Time Min 1 (sec), p (Fisher's LSD) [2, 3]: 0.2548 | Forced Swim Test Day 1, Immobility Time Min 2 (sec), p (Fisher's LSD) [2, 3]: 0.5009 | Forced Swim Test Day 1, Immobility Time Min 3 (sec), p (Fisher's LSD) [2, 3]: 0.4155 | Forced Swim Test Day 1, Immobility Time Min 4 (sec), p (Fisher's LSD) [2, 3]: 0.7067 | Forced Swim Test Day 1, Immobility Time Min 5 (sec), p (Fisher's LSD) [2, 3]: 0.3041 | Forced Swim Test Day 1, Immobility Time Min 6 (sec), p (Fisher's LSD) [2, 3]: 0.8903 | Forced Swim Test Day 2, Immobility Time (sec), p (Fisher's LSD) ([2]; (R,S)-ketamine (30 mg/kg) vs. FENM (20 mg/kg), after ANOVA, FIG. 8K): 0.0713 | Forced Swim Test Day 2, Immobility Time (sec), p (Fisher's LSD) ([2]; (R,S)-ketamine (30 mg/kg) vs. FENM (20 mg/kg), after RMANOVA, FIG. 8J): 0.0712 | Behavior: Depressive-like ([2]; Antidepressant (5 min after stress), dose 10 mg/kg): ↓ | Behavior: Depressive-like ([2]; Antidepressant (5 min after stress), dose 20 mg/kg): ↓ | Behavior: Depressive-like ([2]; Antidepressant (5 min after stress), dose 30 mg/kg): ↓ | Behavior: Depressive-like ([2]; Antidepressant (5 min after stress; extinction), dose 20 mg/kg): ↓ | p, Immobility Time Min 1 (sec), FST Day 2, Saline vs. FENM [2, 4]: 0.3330 | p, Immobility Time Min 2 (sec), FST Day 2, Saline vs. FENM [2, 4]: 0.4156 | p, Immobility Time Min 3 (sec), FST Day 2, Saline vs. FENM [2, 4]: 0.0346 | p, Immobility Time Min 4 (sec), FST Day 2, Saline vs. FENM [2, 4]: 0.2905 | p, Immobility Time Min 5 (sec), FST Day 2, Saline vs. FENM [2, 4]: 0.6448 | p, Immobility Time Min 6 (sec), FST Day 2, Saline vs. FENM [2, 4]: 0.5256 | p, Immobility Time (s), FST Day 2, (R,S)-ketamine vs. FENM ([2]; Fisher's PLSD after ANOVA, FIG. 3K): 0.0014 | p, Immobility Time (s), FST Day 2, Saline vs. drug ([2]; Fisher's PLSD after ANOVA, FENM 20 mg/kg, (R,S)-ketamine 30 mg/kg, FIG. 3K): 0.0097 | p, Immobility Time (s), FST Day 2, (R,S)-ketamine vs. FENM ([2]; Fisher's PLSD after RMANOVA, FIG. 3J): 0.0069 | p, Immobility Time (s), FST Day 2, Saline vs. drug ([2]; Fisher's PLSD after RMANOVA, FENM 20 mg/kg, (R,S)-ketamine 30 mg/kg, FIG. 3J): 0.0234 | Behavior: Depressive-like ([2]; Prophylactic (7 days before stress), dose 10 mg/kg): ↓ | Behavior: Depressive-like ([2]; Prophylactic (7 days before stress), dose 20 mg/kg): ↓ | Behavior: Depressive-like ([2]; Prophylactic (7 days before stress), dose 30 mg/kg): ↓ | Forced Swim Test Day 1, Immobility Time Min 1 (sec), p (Fisher's LSD) ([2]; Saline vs. FENM (20 mg/kg)): <0.0001 | Forced Swim Test Day 1, Immobility Time Min 2 (sec), p (Fisher's LSD) ([2]; Saline vs. FENM (20 mg/kg)): 0.0752 | Forced Swim Test Day 1, Immobility Time Min 3 (sec), p (Fisher's LSD) ([2]; Saline vs. FENM (20 mg/kg)): 0.0422 | Forced Swim Test Day 1, Immobility Time Min 4 (sec), p (Fisher's LSD) ([2]; Saline vs. FENM (20 mg/kg)): 0.4348 | Forced Swim Test Day 1, Immobility Time Min 5 (sec), p (Fisher's LSD) ([2]; Saline vs. FENM (20 mg/kg)): 0.8223 | Forced Swim Test Day 1, Immobility Time Min 6 (sec), p (Fisher's LSD) ([2]; Saline vs. FENM (20 mg/kg)): 0.0677 | Forced Swim Test Day 2, Immobility Time (sec), p (Fisher's LSD) ([2]; Saline vs. FENM (20 mg/kg), after ANOVA, FIG. 8K): 0.3636 | Forced Swim Test Day 2, Immobility Time (sec), p (Fisher's LSD) ([2]; Saline vs. FENM (20 mg/kg), after RMANOVA, FIG. 8J): 0.3085 | p, Fisher's PLSD Saline vs. drug, FST Day 2 Immobility Time Min 1 (s) ([2]; dose (20)): 0.0237 | p, Fisher's PLSD Saline vs. drug, FST Day 2 Immobility Time Min 2 (s) ([2]; dose (20)): 0.0034 | p, Fisher's PLSD Saline vs. drug, FST Day 2 Immobility Time Min 3 (s) ([2]; dose (20)): 0.0763 | p, Fisher's PLSD Saline vs. drug, FST Day 2 Immobility Time Min 4 (s) ([2]; dose (20)): 0.1586 | p, Fisher's PLSD Saline vs. drug, FST Day 2 Immobility Time Min 5 (s) ([2]; dose (20)): 0.0575 | p, Fisher's PLSD Saline vs. drug, FST Day 2 Immobility Time Min 6 (s) ([2]; dose (20)): 0.2137 | p, Fisher's PLSD Saline vs. drug, FST Day 2 Immobility Time (s) ([2]; dose (20), after ANOVA): 0.0024 | immobility, day 1 of the FST [2, 5]: comparable | immobility, day 2 of the FST [2, 5]: comparable | p, Immobility Time (sec), FST Day 1, Saline vs. FENM ([2]; t-test, Baseline cohort, FENM 20 mg/kg, FIG. 6C): 0.7086 | p, Immobility Time (sec), FST Day 2, Saline vs. FENM ([2]; t-test, Baseline cohort, FENM 20 mg/kg, FIG. 6E): 0.7847

Reference: patent US20220071932A1, “Compositions and Methods Against Stress-Induced Affective Disorders and Their Associated Symptoms” (The Trustees of Columbia University in the City of New York, priority 2019, published 2022)
